Patent US11667602B2, “Compounds and their use” (AstraZeneca AB, priority 2020, dated 2023)
Converted amounts (≈) assume the structure as drawn.

Tests used:
human RXFP1 = biological target: T1, human RXFP1 (Homo sapiens, UniProt Q9HBX9); assay: RXFP1 Hu cAMP (Test A); format: cell-based; parameters: expressed in transfected cells; host or cells: Jump-In T-REx CHO-K1 cells (ThermoFisher), induced with 10 ng/ml doxycycline for 24 h; conditions: RXFP1 Hu cAMP; for EC50: read-out: Test A EC50
T1 sequence (Q9HBX9 1-757): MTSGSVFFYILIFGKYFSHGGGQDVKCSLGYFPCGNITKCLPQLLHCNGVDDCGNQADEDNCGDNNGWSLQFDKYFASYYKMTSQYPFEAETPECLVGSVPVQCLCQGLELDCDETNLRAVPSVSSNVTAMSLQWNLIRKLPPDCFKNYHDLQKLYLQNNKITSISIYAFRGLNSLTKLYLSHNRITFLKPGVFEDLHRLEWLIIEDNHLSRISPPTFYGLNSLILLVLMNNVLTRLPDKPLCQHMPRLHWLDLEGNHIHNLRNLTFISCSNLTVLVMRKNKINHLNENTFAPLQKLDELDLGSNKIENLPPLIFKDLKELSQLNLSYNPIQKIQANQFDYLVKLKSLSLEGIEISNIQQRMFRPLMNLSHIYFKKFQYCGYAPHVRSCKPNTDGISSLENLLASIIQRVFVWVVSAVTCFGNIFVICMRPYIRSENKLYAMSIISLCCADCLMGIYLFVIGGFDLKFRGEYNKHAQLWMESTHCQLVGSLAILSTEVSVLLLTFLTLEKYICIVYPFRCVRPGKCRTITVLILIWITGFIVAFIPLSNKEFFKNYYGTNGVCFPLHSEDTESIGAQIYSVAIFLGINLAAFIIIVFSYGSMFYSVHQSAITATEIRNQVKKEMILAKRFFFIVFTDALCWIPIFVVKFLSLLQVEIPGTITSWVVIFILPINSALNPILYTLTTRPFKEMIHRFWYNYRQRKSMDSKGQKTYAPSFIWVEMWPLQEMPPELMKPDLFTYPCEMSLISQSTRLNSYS
Procedure, shortened: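 Read-out is HTRF signal, inversely proportional to cAMP, converted to cAMP amount by standard curve. Stimulation occurred in inducible CHO-K1 cells expressing the human receptor with phosphodiesterases blocked by 0.5 mM IBMX.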

[1] = Human Hepatocyte Stability (Test D); format: in vitro ADME; conditions: geometric mean if run multiple times; for hepatocyte CLint at 1 µM: human, cryopreserved pooled human hepatocytes (LiverPool 10-Donor)
Procedure, shortened: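 Intrinsic clearance (μL/min/10^6 cells), derived as kV/N from the log-linear loss of parent compound. Compound incubated at 37 °C with cryopreserved pooled human hepatocytes, 0.25×10^6 cells in 0.25 mL L-15; dosing solution 100 μM in acetonitrile. Singlicate incubations, cassette LC-MS; repeats reported as geometric mean.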

[2] = Rat Hepatocyte Stability (Test E); format: in vitro ADME; conditions: geometric mean if run multiple times; for hepatocyte CLint: rat, hepatocytes
Procedure, shortened: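 Intrinsic clearance in rat hepatocytes, expressed as μl/min/10^6 cells, following the literature integrated DMPK panel method. Repeat determinations combined as geometric mean.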

[3] = Human Plasma Protein Binding (Test B); format: in vitro ADME; conditions: fraction unbound (fu)
Procedure, shortened: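 Values given as % free (fu) in human plasma, using the method of Wernevik et al. (2020). For compounds tested more than once, the arithmetic mean is given.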

Solubility (Test F) = format: physicochemical; conditions: arithmetic mean if run multiple times
Method: The assay was conducted according to the Solubility Assay described in pages 164-167 of Wernevik, J. et al., “A Fully Integrated Assay Panel for Early Drug Metabolism and Pharmacokinetics Profiling”, Assay and Drug Development Technologies, 2020, 18(4), 157-179. Data are reported in Table 36 as solubility ([…]. Where the assay was run multiple times for the same compound, the arithmetic mean is reported.

[4] = Human Liver Microsomal Stability (Test C); format: in vitro ADME; conditions: for microsomal CLint: human, liver microsomes
Procedure, shortened: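 CLint (μl/min/mg protein) derived from compound depletion in human liver microsomes following a published standardized early-DMPK protocol; replicate determinations given as arithmetic mean.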

| SMILES | Test A Sinf (human RXFP1) | hepatocyte CLint at 1 µM [1] | hepatocyte CLint [2] | Test B Human Plasma Protein Binding (% free) [3] | solubility (Solubility (Test F)) | microsomal CLint [4] | EC50 (human RXFP1) | Test D Human Hepatocyte Stability Clint ([1]; human hepatocytes) | Test E Rat Hepatocyte Stability Clint ([2]; rat hepatocytes) | Test C Human Liver Microsomal Stability Clint ([4]; human liver microsomes) |
| --- | --- | --- | --- | --- | --- | --- | --- | --- | --- | --- |
| COc1cc(F)c(-c2cccc(C(=O)O)c2)cc1C(=O)N[C@H]1[C@@H](C(=O)Nc2cccc(S(=O)(=O)C(F)(F)F)c2)[C@@H]2C=C[C@H]1C2 (single isomer, unassigned) [Example 554] | 103% | 5.4 µL/min/1e6 cells | 18 µL/min/1e6 cells | <0.30 % free | 700 µM (≈ 443 µg/mL) | < 3 µL/min/mg |  |  |  |  |
| CCC(CC)[C@@H](C)NC(=O)[C@H]1[C@@H]2CC[C@@H](C2)[C@H]1NC(=O)c1cc(O[C@H]2CC[C@@](C)(C(=O)O)CC2)c(F)cc1OC (single isomer, unassigned) [Example 145, (1S,4s)-4-(5-(((1S,2R,3S,4R)-3-(((R*)-3-Ethylpentan-2-yl)carbamoyl)bicyclo[2.2.1]heptan-2-yl)carbamoyl)-2-fluoro-4-methoxyphenoxy)-1-methylcyclohexane-1-carboxylic acid] | 95% | 14 µL/min/1e6 cells | 53 µL/min/1e6 cells | 0.81 % free | 870 µM (≈ 488 µg/mL) | 180 µL/min/mg | 1300 nM |  |  |  |
| COc1cc(F)c(O[C@H]2CC[C@@](C)(C(=O)O)CC2)cc1C(=O)N[C@@H]1[C@H]2CC[C@H](C2)[C@@H]1C(=O)N[C@H](C)C1(C)CC1 (racemic) [Example 39] | 96% | 8.2 µL/min/1e6 cells | 59 µL/min/1e6 cells | 4.8 % free | 980 µM (≈ 534 µg/mL) | 24 µL/min/mg | 740 nM |  |  |  |
| COc1cc(C#N)c(O[C@H]2CC[C@@](C)(C(=O)O)CC2)cc1C(=O)N[C@H]1C2CCC(CC2)[C@H]1C(=O)NCC1(C)CCC1 (relative stereo) [Example 539, (1R,4s)-4-(2-Cyano-4-methoxy-5-(((2S*,3R*)-3-(((1-methylcyclobutyl)methyl)carbamoyl)bicyclo[2.2.2]octan-2-yl)carbamoyl)phenoxy)-1-methylcyclohexane-1-carboxylic acid] | 102% |  |  | 3.2 % free | 700 µM (≈ 396 µg/mL) |  | 3.1 nM | 64 μL/min/10^6 cells | 28 μL/min/10^6 cells | 63 µL/min/mg |
| COc1cc(F)c(O[C@H]2CC[C@@](C)(C(=O)O)CC2)cc1C(=O)N[C@@H]1[C@H]2CC[C@H](C2)[C@@H]1C(=O)NCC1(C)CCCCC1 [Example 44] | 107% | 17 µL/min/1e6 cells | 35 µL/min/1e6 cells | 2.1 % free | 300 µM (≈ 172 µg/mL) | 110 µL/min/mg | 16 nM |  |  |  |
| COc1cc(F)c(O[C@H]2CC[C@@](C)(C(=O)O)CC2)cc1C(=O)N[C@@H]1[C@H]2CC[C@H](C2)[C@@H]1C(=O)NCC(C)(C)C#N [Example 47] | 111% | < 1 µL/min/1e6 cells | 17 µL/min/1e6 cells | 21 % free | > 1000 µM | < 3 µL/min/mg | 200 nM |  |  |  |
| COc1cc(F)c(-c2cccc(C(=O)O)c2)cc1C(=O)N[C@@H]1[C@H](C(=O)Nc2cccc(S(=O)(=O)C(F)(F)F)c2)[C@H]2C=C[C@@H]1C2 (single isomer, unassigned) [Example 555] |  | 13 µL/min/1e6 cells | 18 µL/min/1e6 cells | <0.30 % free | 560 µM (≈ 354 µg/mL) | 21 µL/min/mg | > 50000 nM |  |  |  |
| COc1cc(C#N)c(O[C@H]2CC[C@@](C)(C(=O)O)CC2)cc1C(=O)N[C@@H]1CCC[C@@H]1C(=O)NCC1(C)CCC1 [Example 360] | 101% | 3.6 µL/min/1e6 cells | 17 µL/min/1e6 cells | 15 % free | > 1000 µM | 8.4 µL/min/mg | 100 nM |  |  |  |
| COc1cc(F)c(O[C@H]2CC[C@@](CO)(C(=O)O)CC2)cc1C(=O)N[C@@H]1[C@H]2CC[C@H](C2)[C@@H]1C(=O)NCC1(C(F)(F)F)CCC1 [Example 365] | 113% | 9.3 µL/min/1e6 cells | 15 µL/min/1e6 cells | 7.8 % free | 980 µM (≈ 602 µg/mL) | 14 µL/min/mg | 57 nM |  |  |  |

More lines, main results first:

| Test A Sinf (human RXFP1) | hepatocyte CLint at 1 µM [1] | hepatocyte CLint [2] | Test B Human Plasma Protein Binding (% free) [3] | solubility (Solubility (Test F)) | microsomal CLint [4] | EC50 (human RXFP1) | SMILES | Test D Human Hepatocyte Stability Clint ([1]; human hepatocytes) | Test E Rat Hepatocyte Stability Clint ([2]; rat hepatocytes) | Test C Human Liver Microsomal Stability Clint ([4]; human liver microsomes) |
| --- | --- | --- | --- | --- | --- | --- | --- | --- | --- | --- |
| 105% | 4.3 µL/min/1e6 cells | 17 µL/min/1e6 cells | 0.33 % free | 190 µM (≈ 127 µg/mL) | 12 µL/min/mg | 1.5 nM | COc1cc(F)c(O[C@H]2CC[C@@](C)(C(=O)O)CC2)cc1C(=O)NC1C2CCC(C2)C1C(=O)Nc1cccc(S(=O)(=O)C(F)(F)F)c1 (single isomer, unassigned) [Example 586, (1R,4s)-4-(2-Fluoro-4-methoxy-5-(((1S*,2S*,3R*,4R*)-3-((3-((trifluoromethyl)sulfonyl)phenyl)carbamoyl)bicyclo[2.2.1]heptan-2-yl)carbamoyl)phenoxy)-1-methylcyclohexane-1-carboxylic acid] |  |  |  |
| 115% | 2.3 µL/min/1e6 cells | 5.3 µL/min/1e6 cells | 0.090 % free | 400 µM (≈ 233 µg/mL) | < 3 µL/min/mg |  | COc1cc(F)c(O[C@H]2CC[C@@H](C(=O)O)CC2)cc1C(=O)NC1=C(C(=O)Nc2ccc(F)c(C(F)(F)F)c2)CCC1 [Example 214, (1s,4s)-4-(2-Fluoro-5-((2-((4-fluoro-3-(trifluoromethyl)phenyl)carbamoyl)cyclopent-1-en-1-yl)carbamoyl)-4-methoxyphenoxy)cyclohexane-1-carboxylic acid] |  |  |  |
| 111% | 140 µL/min/1e6 cells | 28 µL/min/1e6 cells | <0.36 % free | > 1000 µM | 19 µL/min/mg |  | COc1cc(F)c(-c2ccc(C(=O)O)cc2)cc1C(=O)N[C@H]1[C@@H]2CC[C@@H](C2)[C@H]1C(=O)Nc1ccc(F)c(C(F)(F)F)c1 (single isomer, unassigned) [Example 591] |  |  |  |
| 95% | 4.1 µL/min/1e6 cells | 48 µL/min/1e6 cells | 2.3 % free | 680 µM (≈ 391 µg/mL) | 13 µL/min/mg | 600 nM | COc1cc(F)c(O[C@H]2CC[C@@H](C(=O)O)CC2)cc1C(=O)N[C@@H]1[C@H]2CC[C@H](C2)[C@@H]1C(=O)Nc1ccc(C(F)F)cc1 [Example 181, (1S,4s)-4-(5-(((1S,2R,3S,4R)-3-((4-(Difluoromethyl)phenyl)carbamoyl)bicyclo[2.2.1]heptan-2-yl)carbamoyl)-2-fluoro-4-methoxyphenoxy)cyclohexane-1-carboxylic acid] |  |  |  |
| 108% | 2.4 µL/min/1e6 cells | 4 µL/min/1e6 cells | 1.3 % free | 38 µM (≈ 23.6 µg/mL) | < 3 µL/min/mg | 420 nM | COc1cc(F)c(O[C@H]2CC[C@@H](C(=O)O)CC2)cc1C(=O)N[C@@H]1CC(F)(F)C[C@@H]1C(=O)Nc1ccc(F)c(C(F)(F)F)c1 (racemic) [Example 493] |  |  |  |
